Consider twelve compounds from PubChem BioAssay (NCI).

Each structure is given as a SMILES string.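 Following 48 hours of exposure in 96-well plates, responses at five concentrations were used to interpolate endpoints linearly. At the TGI there is no net growth.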

Test systems include SW-620 colon; SF-539 CNS; NCI-H23 lung; OVCAR-8 ovarian; KM12 colon; XF 498 CNS; OVCAR-5 ovarian; RPMI-8226 leukemia; LXFL 529 NSCLC.
What all share (test): NCI-60 cell line screen, 48 h

For `CN(C)c1ncnc2c1Cc1ccccc1C(=O)N2C`, the TGI in the assay on SW-620 colon, with SF-539 CNS, in the assay on NCI-H23 lung, in the assay with OVCAR-8 ovarian, in the assay with KM12 colon and with XF 498 CNS was over 100 µM in each case. Moreover, the TGI with OVCAR-5 ovarian, with RPMI-8226 leukemia and in the assay on LXFL 529 NSCLC was over 100 µM in each case.
Consider `C=CCCOC(=O)CO[N+](=O)[O-]`, for which the TGI with SW-620 colon, in the assay with SF-539 CNS, in the assay with NCI-H23 lung, in the assay on OVCAR-8 ovarian, in the assay on KM12 colon and in the assay on XF 498 CNS was over 100 µM throughout. For the same compound, the TGI with OVCAR-5 ovarian, in the assay on RPMI-8226 leukemia and with LXFL 529 NSCLC was over 100 µM each time.
For `COc1cc(Br)c(CC2(C#N)c3ccccc3C3C(N2C(=O)c2ccccc2)C3(Cl)Cl)cc1OC` (stereo not given), the TGI with SW-620 colon, with SF-539 CNS, in the assay on NCI-H23 lung, in the assay with OVCAR-8 ovarian, in the assay on KM12 colon and in the assay on XF 498 CNS was over 65.5 µM in each case. Also, the TGI in the assay with OVCAR-5 ovarian, in the assay on RPMI-8226 leukemia and with LXFL 529 NSCLC was over 65.5 µM throughout.
Take `COc1ccc(/C=C/C(=O)C(C)(C)CN2CCCCC2)cc1`: the TGI was found to be 14.2 µM in the assay on SW-620 colon; 38.1 µM with SF-539 CNS; 54.7 µM with NCI-H23 lung; 37.7 µM with OVCAR-8 ovarian; 55.7 µM in the assay on KM12 colon; 30.1 µM in the assay on XF 498 CNS. In addition, the TGI in the assay with OVCAR-5 ovarian is over 100 µM; with RPMI-8226 leukemia, 40.3 µM; with LXFL 529 NSCLC, 28.9 µM.
`C[N+](C)(C)CC(=O)N/N=C(\CCC(=O)NCCc1ccccc1)CC(=O)c1ccccc1`: the TGI in the assay with SW-620 colon, in the assay with SF-539 CNS, in the assay with NCI-H23 lung, in the assay with OVCAR-8 ovarian, with KM12 colon and with XF 498 CNS was over 100 µM throughout. The TGI with OVCAR-5 ovarian, in the assay with RPMI-8226 leukemia and in the assay with LXFL 529 NSCLC was over 100 µM each time.
Turning to `c1ccc(N=c2snc3scc(-c4ccccc4)n23)cc1`, the TGI with SW-620 colon is over 100 µM; in the assay on SF-539 CNS, over 100 µM; in the assay with NCI-H23 lung, over 100 µM; in the assay with OVCAR-8 ovarian, over 100 µM; in the assay on KM12 colon it was over 100 µM; in the assay with XF 498 CNS, 66.6 µM. The TGI in the assay on OVCAR-5 ovarian was over 100 µM; in the assay with RPMI-8226 leukemia it was 86.7 µM; in the assay on LXFL 529 NSCLC it was over 100 µM.
For the compound `CSc1nc(NC2OCC(OC(C)=O)C(OC(C)=O)C2OC(C)=O)c(N=C(C)C(C)=O)c(=O)n1C` (stereo not given), the TGI with SW-620 colon, in the assay with SF-539 CNS, in the assay with NCI-H23 lung, in the assay on OVCAR-8 ovarian, with KM12 colon and in the assay with XF 498 CNS was over 100 µM throughout. Besides, the TGI in the assay on OVCAR-5 ovarian, in the assay with RPMI-8226 leukemia and in the assay on LXFL 529 NSCLC was over 100 µM each time.
On to `Cc1ccc2[nH]c3c(C)c4c(c(C)c3c2c1)CN(C)C=C4`, for which the TGI came out at 3 µM in the assay on SW-620 colon; 1.62 µM with SF-539 CNS; 2.3 µM in the assay on NCI-H23 lung; 9.01 µM in the assay with OVCAR-8 ovarian; 2.4 µM with KM12 colon; 6.06 µM in the assay with XF 498 CNS. In addition, the TGI in the assay with OVCAR-5 ovarian came out at 9.41 µM; in the assay on RPMI-8226 leukemia, 35.5 µM; with LXFL 529 NSCLC, 2.35 µM.
As to `CC1CN(c2ccc(Cl)cc2)CC(C)(C)OC(=O)O1` (stereo not given), the TGI in the assay with SW-620 colon, in the assay with SF-539 CNS, in the assay with NCI-H23 lung, in the assay with OVCAR-8 ovarian, in the assay on KM12 colon and in the assay with XF 498 CNS was over 100 µM in each case. Moreover, the TGI in the assay on OVCAR-5 ovarian, in the assay on RPMI-8226 leukemia and in the assay on LXFL 529 NSCLC was over 100 µM in each case.
With `O=c1c(-c2ccccc2)c2oc(c1-c1ccccc1)CS(=O)(=O)CCC2`, the TGI is over 100 µM with SW-620 colon; 42.4 µM in the assay on SF-539 CNS; 38.9 µM in the assay on NCI-H23 lung; over 100 µM in the assay on OVCAR-8 ovarian; over 100 µM with KM12 colon; 24.7 µM in the assay with XF 498 CNS. In addition, the TGI in the assay with RPMI-8226 leukemia was over 100 µM; with LXFL 529 NSCLC it was 33.7 µM.
With `COCc1c(CO)cnc(C)c1OC1OC(CO)C(O)C(O)C1O` (stereo not given), the TGI with SW-620 colon, in the assay on SF-539 CNS, with OVCAR-8 ovarian, in the assay with KM12 colon, in the assay on XF 498 CNS and in the assay on OVCAR-5 ovarian was over 100 µM throughout. Further, the TGI in the assay on RPMI-8226 leukemia and with LXFL 529 NSCLC was over 100 µM in each case.
For `O=C(Cc1nc2ccccc2s1)Nc1ccc(Cl)cc1`, the TGI in the assay with SW-620 colon, with SF-539 CNS, in the assay with NCI-H23 lung, in the assay with OVCAR-8 ovarian, in the assay with KM12 colon and with XF 498 CNS was over 100 µM throughout. In addition, the TGI in the assay with OVCAR-5 ovarian and in the assay with LXFL 529 NSCLC was over 100 µM in each case.
